Test results as given in patent publication US10405547B2, “Substituted cyclic amides as herbicides” (FMC Corporation, priority 2015, dated 2019).

What was measured:
Type in all cases: in vivo
[1] = system: barnyardgrass (Echinochloa crus-galli); assay: Test A preemergence, barnyardgrass; settings: 0 to 100 scale (0 no effect, 100 complete control)
How it was run: (§1)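 Greenhouse assay; ~10 d; visual injury vs untreated control, scored 0 = no effect through 100 = complete control. Post-emergent seedlings at one–two leaves; pre-emergent seeds in loam/sand given a directed soil spray.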

[2] = system: kochia (Kochia scoparia); assay: Test A preemergence, kochia; settings: 0 to 100 scale (0 no effect, 100 complete control)
How it was run: as §1

[3] = system: ragweed (common ragweed, Ambrosia elatior); assay: Test A preemergence, ragweed; settings: 0 to 100 scale (0 no effect, 100 complete control)
How it was run: as §1

[4] = system: ryegrass, Italian (Lolium multiflorum); assay: Test A preemergence, Italian ryegrass; settings: 0 to 100 scale (0 no effect, 100 complete control)
How it was run: as §1

[5] = system: foxtail, giant (Setaria faberii); assay: Test A preemergence, giant foxtail; settings: 0 to 100 scale (0 no effect, 100 complete control)
How it was run: as §1

[6] = system: pigweed (Amaranthus retroflexus); assay: Test A preemergence, pigweed; settings: 0 to 100 scale (0 no effect, 100 complete control)
How it was run: as §1

[7] = system: barnyardgrass (Echinochloa crus-galli); assay: Test A postemergence, barnyardgrass; settings: visual injury, 0 to 100 scale (0 no effect, 100 complete control), approximately 10 days
How it was run: as §1

[8] = system: ragweed (common ragweed, Ambrosia elatior); assay: Test A postemergence, ragweed; settings: visual injury, 0 to 100 scale (0 no effect, 100 complete control), approximately 10 days
How it was run: as §1

[9] = system: ryegrass, Italian (Lolium multiflorum); assay: Test A postemergence, Italian ryegrass; settings: visual injury, 0 to 100 scale (0 no effect, 100 complete control), approximately 10 days
How it was run: as §1

[10] = system: foxtail, giant (Setaria faberii); assay: Test A postemergence, giant foxtail; settings: visual injury, 0 to 100 scale (0 no effect, 100 complete control), approximately 10 days
How it was run: as §1

[11] = system: pigweed (Amaranthus retroflexus); assay: Test A postemergence, pigweed; settings: visual injury, 0 to 100 scale (0 no effect, 100 complete control), approximately 10 days
How it was run: as §1

[12] = system: blackgrass (Alopecurus myosuroides); assay: Test A postemergence, blackgrass; settings: visual injury, 0 to 100 scale (0 no effect, 100 complete control), approximately 10 days
How it was run: as §1

[13] = system: galium (catchweed bedstraw, Galium aparine); assay: Test A postemergence, galium; settings: visual injury, 0 to 100 scale (0 no effect, 100 complete control), approximately 10 days
How it was run: as §1

[14] = system: wheat (Triticum aestivum); assay: Test A postemergence, wheat; settings: visual injury, 0 to 100 scale (0 no effect, 100 complete control), approximately 10 days
How it was run: as §1

[15] = system: corn (Zea mays); assay: Test A postemergence, corn; settings: visual injury, 0 to 100 scale (0 no effect, 100 complete control), approximately 10 days
How it was run: as §1

[16] = system: rice (Oryza sativa); assay: Test B flooded paddy test, rice; settings: 250 g ai/ha, applied to paddy water, visual rating after 13 to 15 days, scale 0 (no effect) to 100 (complete control)
Description: (§2) At time of treatment, test pots were flooded to 3 cm above the soil surface, treated by application of test compounds directly to the paddy water, and then maintained at that water depth for the duration of the test. Treated plants and controls were maintained in a greenhouse for 13 to 15 days, after which time all species were compared to controls and visually evaluated. […] A dash (-) response means no test result.

[17] = system: sedge, umbrella (small-flower umbrella sedge, Cyperus difformis); assay: Test B flooded paddy test, umbrella sedge; settings: 250 g ai/ha, applied to paddy water, visual rating after 13 to 15 days, scale 0 (no effect) to 100 (complete control)
Description: as §2

[18] = system: ducksalad (Heteranthera limosa); assay: Test B flooded paddy test, ducksalad; settings: 250 g ai/ha, applied to paddy water, visual rating after 13 to 15 days, scale 0 (no effect) to 100 (complete control)
Description: as §2

[19] = system: barnyardgrass (Echinochloa crus-galli); assay: Test B flooded paddy test, barnyardgrass; settings: 250 g ai/ha, applied to paddy water, visual rating after 13 to 15 days, scale 0 (no effect) to 100 (complete control)
Description: as §2

[20] = system: kochia (Kochia scoparia); assay: Test A postemergence, kochia; settings: visual injury, 0 to 100 scale (0 no effect, 100 complete control), approximately 10 days
How it was run: as §1

CN1CC(c2cccc(Oc3ccc(F)cn3)c2)C(C(=O)Nc2ccccc2F)C1=O (single isomer, unassigned) [Compound 60]
Plant response rating, Barnyardgrass ([1]; 125 g ai/ha): 90
Plant response rating, Barnyardgrass ([1]; 500 g ai/ha): 90
Plant response rating, Kochia ([2]; 125 g ai/ha): 70
Plant response rating, Kochia ([2]; 500 g ai/ha): 80
Plant response rating, Ragweed ([3]; 125 g ai/ha): 40
Plant response rating, Ragweed ([3]; 500 g ai/ha): 50
Plant response rating, Ryegrass, Italian ([4]; 125 g ai/ha): 20
Plant response rating, Ryegrass, Italian ([4]; 500 g ai/ha): 70
Plant response rating, Foxtail, Giant ([5]; 125 g ai/ha): 90
Plant response rating, Foxtail, Giant ([5]; 500 g ai/ha): 90
Plant response rating, Pigweed ([6]; 125 g ai/ha): 60
Plant response rating, Pigweed ([6]; 500 g ai/ha): 50
Plant response rating, Barnyardgrass ([7]; 125 g ai/ha): 70
Plant response rating, Barnyardgrass ([7]; 500 g ai/ha): 90
Plant response rating, Ragweed ([8]; 125 g ai/ha): 0
Plant response rating, Ragweed ([8]; 500 g ai/ha): 40
Plant response rating, Ryegrass, Italian ([9]; 125 g ai/ha): 30
Plant response rating, Ryegrass, Italian ([9]; 500 g ai/ha): 50
Plant response rating, Foxtail, Giant ([10]; 125 g ai/ha): 80
Plant response rating, Foxtail, Giant ([10]; 500 g ai/ha): 90
Plant response rating, Pigweed ([11]; 125 g ai/ha): 0
Plant response rating, Pigweed ([11]; 500 g ai/ha): 40
Plant response rating, Blackgrass ([12]; 125 g ai/ha): 0
Plant response rating, Blackgrass ([12]; 500 g ai/ha): 30
Plant response rating, Galium ([13]; 125 g ai/ha): 30
Plant response rating, Galium ([13]; 500 g ai/ha): 60
Plant response rating, Wheat ([14]; 125 g ai/ha): 0
Plant response rating, Wheat ([14]; 500 g ai/ha): 70
Plant response rating, Corn ([15]; 125 g ai/ha): 30
Plant response rating, Corn ([15]; 500 g ai/ha): 50
Plant response rating, Rice (Flood) [16]: 0
Plant response rating, Sedge, Umbrella (Flood) [17]: 0
Plant response rating, Ducksalad (Flood) [18]: 100
Plant response rating, Barnyardgrass (Flood) [19]: 65

O=C1NCC(c2cccc(Oc3ncc(Cl)cn3)c2)C1C(=O)Nc1ccccc1F (centres unmarked) [Compound 55]
Plant response rating, Barnyardgrass ([1]; 125 g ai/ha): 0
Plant response rating, Barnyardgrass ([1]; 500 g ai/ha): 80
Plant response rating, Kochia ([2]; 125 g ai/ha): 0
Plant response rating, Kochia ([2]; 500 g ai/ha): 20
Plant response rating, Ragweed ([3]; 125 g ai/ha): 0
Plant response rating, Ragweed ([3]; 500 g ai/ha): 0
Plant response rating, Ryegrass, Italian ([4]; 125 g ai/ha): 0
Plant response rating, Ryegrass, Italian ([4]; 500 g ai/ha): 20
Plant response rating, Foxtail, Giant ([5]; 125 g ai/ha): 80
Plant response rating, Foxtail, Giant ([5]; 500 g ai/ha): 90
Plant response rating, Pigweed ([6]; 125 g ai/ha): 0
Plant response rating, Pigweed ([6]; 500 g ai/ha): 0
Plant response rating, Barnyardgrass ([7]; 125 g ai/ha): 30
Plant response rating, Barnyardgrass ([7]; 500 g ai/ha): 80
Plant response rating, Kochia ([20]; 125 g ai/ha): 0
Plant response rating, Kochia ([20]; 500 g ai/ha): 0
Plant response rating, Ragweed ([8]; 125 g ai/ha): 0
Plant response rating, Ragweed ([8]; 500 g ai/ha): 0
Plant response rating, Ryegrass, Italian ([9]; 125 g ai/ha): 0
Plant response rating, Ryegrass, Italian ([9]; 500 g ai/ha): 30
Plant response rating, Foxtail, Giant ([10]; 125 g ai/ha): 70
Plant response rating, Foxtail, Giant ([10]; 500 g ai/ha): 80
Plant response rating, Pigweed ([11]; 125 g ai/ha): 0
Plant response rating, Pigweed ([11]; 500 g ai/ha): 0
Plant response rating, Blackgrass ([12]; 125 g ai/ha): 0
Plant response rating, Blackgrass ([12]; 500 g ai/ha): 0
Plant response rating, Galium ([13]; 125 g ai/ha): 0
Plant response rating, Galium ([13]; 500 g ai/ha): 30
Plant response rating, Wheat ([14]; 125 g ai/ha): 0
Plant response rating, Wheat ([14]; 500 g ai/ha): 0
Plant response rating, Corn ([15]; 125 g ai/ha): 0
Plant response rating, Corn ([15]; 500 g ai/ha): 0

O=C1NCC(c2cccc(Oc3ncc(Cl)cn3)c2)C1C(=O)Nc1cccc(F)c1F (centres unmarked) [Compound 56]
Plant response rating, Barnyardgrass ([1]; 125 g ai/ha): 30
Plant response rating, Barnyardgrass ([1]; 500 g ai/ha): 70
Plant response rating, Kochia ([2]; 125 g ai/ha): 0
Plant response rating, Kochia ([2]; 500 g ai/ha): 0
Plant response rating, Ragweed ([3]; 125 g ai/ha): 0
Plant response rating, Ragweed ([3]; 500 g ai/ha): 0
Plant response rating, Ryegrass, Italian ([4]; 125 g ai/ha): 0
Plant response rating, Ryegrass, Italian ([4]; 500 g ai/ha): 0
Plant response rating, Foxtail, Giant ([5]; 125 g ai/ha): 0
Plant response rating, Foxtail, Giant ([5]; 500 g ai/ha): 0
Plant response rating, Pigweed ([6]; 125 g ai/ha): 0
Plant response rating, Pigweed ([6]; 500 g ai/ha): 0
Plant response rating, Barnyardgrass ([7]; 125 g ai/ha): 0
Plant response rating, Barnyardgrass ([7]; 500 g ai/ha): 30
Plant response rating, Kochia ([20]; 125 g ai/ha): 0
Plant response rating, Kochia ([20]; 500 g ai/ha): 0
Plant response rating, Ragweed ([8]; 125 g ai/ha): 0
Plant response rating, Ragweed ([8]; 500 g ai/ha): 0
Plant response rating, Ryegrass, Italian ([9]; 125 g ai/ha): 0
Plant response rating, Ryegrass, Italian ([9]; 500 g ai/ha): 0
Plant response rating, Foxtail, Giant ([10]; 125 g ai/ha): 0
Plant response rating, Foxtail, Giant ([10]; 500 g ai/ha): 60
Plant response rating, Pigweed ([11]; 125 g ai/ha): 0
Plant response rating, Pigweed ([11]; 500 g ai/ha): 0
Plant response rating, Blackgrass ([12]; 125 g ai/ha): 0
Plant response rating, Blackgrass ([12]; 500 g ai/ha): 0
Plant response rating, Galium ([13]; 125 g ai/ha): 0
Plant response rating, Galium ([13]; 500 g ai/ha): 20
Plant response rating, Wheat ([14]; 125 g ai/ha): 0
Plant response rating, Wheat ([14]; 500 g ai/ha): 0
Plant response rating, Corn ([15]; 125 g ai/ha): 0
Plant response rating, Corn ([15]; 500 g ai/ha): 0
